US5478946A, “Guanidino compounds as regulators of nitric oxide synthase” (Abbott Laboratories, priority 1993, dated 1995)

Tested on: RFL-6 rat fetal lung fibroblast cells
Assay: cGMP assay, RFL-6 cells as detectors of EDRF/NO
Format: cell-based
Details: presence of superoxide dismutase; 6-well plates
From the text: In those instances where it is suspected that the test substance is acting as a substrate rather than an inhibitor, the EDRF/NO may be estimated. For this confirmation bioassay, a method for quantification of endothelium-derived relaxing factor (EDRF) is utilized and is described in detail below. This technique, measuring cyclic GMP responses of RFL-6 rat fetal lung fibroblast cells to estimate NO or EDRF is sensitive, simple and quite useful for the evaluation of compounds that regulate EDRF/NO release from various endothelial cells, or other cells or tissues (such as for example RAW cells (induced with LPS) and N1E-115 cells). (cf. Ishii, K., et al., American Journal of Physiology, 1991,261:(2 pt 2) H598-603). The cyclic GMP measured is an indirect measure of the amount of EDRF/NO produced by NO synthase, so compounds that reduce the amount of cyclic GMP produced are termed inhibitors of NO synthase, and those that increase cyclic GMP in the absence of exogenous L-arginine are termed substrates or stimulators of NO synthase.
This is a new bioassay method for detection and quantification of endothelium-derived relaxing factor (EDRF) wherein cyclic GMP responses of RFL-6 rat fetal lung fibroblast cells are utilized to estimate the activity of nitric oxide (NO) and EDRF. […]

nitric oxide [NO]
lowest concentration of NO to which RFL-6 cells responded: 2 nM
